Measurements reported in paper PMC7413254 (Nature Communications, 2020).
Read-outs that look alike come from different tables or passages of the source.

What was measured:
PfCRT^Dd2 = experiment: cell-based; type: cell-based, Plasmodium falciparum; settings: for PfCRT-mediated [3H]CQ transport, trans-stimulation (% PfCRTDd2 control): PfCRTDd2 oocytes, normalised to oocyte type control; for [3H]CQ transport (% PfCRTDd2 control), trans-stimulation, PfCRTDd2: PfCRT-mediated component (background subtracted), mean ± SEM, SEM
Summary of the method: (§1)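 Oocytes (ten per treatment, ≥4 independent frogs/days) were preloaded by injecting VF-6 in 25 nL ND96 at pH 5.0, 5.5, 6.0 or 7.0, or Na^+-free choline buffer, then uptake run 1.5 h, 27.5 °C, ND96 pH 5.5 by default. Internal concentrations assumed ~400 nL oocyte volume.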

PfCRT^Ecu1110 = experiment: cell-based; type: cell-based, Plasmodium falciparum; settings: for PfCRT-mediated [3H]CQ transport, trans-stimulation (% PfCRTEcu1110 control): PfCRTEcu1110 oocytes, normalised to oocyte type control; for [3H]CQ transport (% PfCRTDd2 control), trans-stimulation, PfCRTEcu1110: PfCRT-mediated component (background subtracted), sheet title says normalised to PfCRTDd2 control, mean ± SEM, SEM
Summary of the method: as §1

C2^GC03 parasites = experiment: P. falciparum proliferation assay; type: cell-based; settings: Plasmodium falciparum
Description: (§2) Parasite proliferation was measured in 96-well plates using a fluorescent DNA-intercalating dye[68],[69]. Synchronous ring-stage parasite cultures (~1% haematocrit and 1% parasitaemia) were incubated with different concentrations of the test compound for 72 h at 37 °C and under reduced O2 conditions. The assay was terminated by freezing and thawing the samples, after which 100 μL of SYBR Safe DNA Gel Stain (Molecular Probes; 0.2 μL/mL) in a lysis buffer (20 mM Tris-HCl, 5 mM EDTA, 0.008% (w/v) saponin and 0.08% (v/v) Triton X-100; pH 7.5) was added to each well. The fluorescence from each well was measured using a Tecan Infinite M1000 PRO microplate reader (excitation wavelength 490 nm; emission wavelength 520 nm). The fluorescence values for the wells containing the highest concentration of the compound were averaged and this value was then subtracted from each of the well values obtained for that 96-well plate. The level of parasite proliferation in the presence of each compound concentration was expressed as a percentage of the proliferation measured in the absence of the compound. The IC50s were determined in SigmaPlot Windows Version 11.0 by a least-squares fit of the equation y = a/[1 + ([compound]/IC50)^c] to the data, where y is the percent parasite proliferation, a is the maximum change in the percent parasite proliferation, and c is a fitted constant. In all cases, five independent experiments were performed (on different days), and within each experiment measurements were averaged from three replicates.

3D7 strain = experiment: P. falciparum proliferation assay; type: cell-based, Plasmodium falciparum
Description: as §2

7G8 strain = experiment: P. falciparum proliferation assay; type: cell-based, Plasmodium falciparum
Description: as §2

C4^Dd2 parasites = experiment: P. falciparum proliferation assay; type: cell-based, Plasmodium falciparum
Description: as §2

C6^7G8 parasites = experiment: P. falciparum proliferation assay; type: cell-based, Plasmodium falciparum
Description: as §2

Dd2 strain = experiment: P. falciparum proliferation assay; type: cell-based, Plasmodium falciparum
Description: as §2

[1] = system: C4^Dd2 versus C2^GC03 infected erythrocytes; experiment: Peptidomic analysis, peptide levels in C4^Dd2 relative to C2^GC03 parasites (LC-MS); type: cell-based, Plasmodium falciparum; settings: Peptides tested before peptidomic data was obtained
PfNT1 = molecular target: T1, PfNT1 (Plasmodium falciparum, UniProt Q8IDM6); experiment: [3H]CQ uptake into Xenopus oocytes (ion and membrane-potential dependence, Supplementary Fig. 2); type: cell-based
T1 construct: expressed in transfected cells; host or cells: Xenopus laevis oocytes (stage V-VI), cRNA-injected

[2] = [test solute]i = 5 mM (intracellular)
[3] = [test solute]i = 45 mM (intracellular; 30 mM for some solutes due to solubility)
[4] = [test solute]i = 5 mM (injected)
[5] = [test solute]i = 45 mM (30 mM for some solutes due to solubility)
[6] = Plasmodium falciparum, 72 h, read-out: IC50 (nM), parasite proliferation, + 1 μM VP, SEM
[7] = Plasmodium falciparum, DD2, 72 h, read-out: IC50 (nM), parasite proliferation, + 1 μM VP, SEM

T1 sequence (Q8IDM6 whole entry): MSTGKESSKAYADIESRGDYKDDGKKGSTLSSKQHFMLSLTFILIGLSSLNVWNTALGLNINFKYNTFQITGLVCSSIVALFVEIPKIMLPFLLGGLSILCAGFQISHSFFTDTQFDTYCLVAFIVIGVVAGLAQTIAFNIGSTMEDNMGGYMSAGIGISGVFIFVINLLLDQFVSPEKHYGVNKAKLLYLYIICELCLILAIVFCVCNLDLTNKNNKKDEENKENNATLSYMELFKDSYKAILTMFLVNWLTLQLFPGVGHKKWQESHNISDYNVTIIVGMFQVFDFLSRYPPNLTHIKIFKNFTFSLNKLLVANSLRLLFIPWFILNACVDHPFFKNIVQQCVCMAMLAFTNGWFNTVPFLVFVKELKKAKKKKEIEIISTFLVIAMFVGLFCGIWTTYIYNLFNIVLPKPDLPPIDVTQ

With `CSCC[C@H](N)C(=O)O` [L-methionine] the “PfCRT-mediated [3H]CQ transport, trans-stimulation (% PfCRTDd2 control)” value (PfCRT^Dd2; [2]) was 98 ± 4.1 % PfCRTDd2 control, the “PfCRT-mediated [3H]CQ transport, trans-stimulation (% PfCRTDd2 control)” value (PfCRT^Dd2; [3]) was 97 ± 3.5 % PfCRTDd2 control and the “[3H]CQ transport (% PfCRTDd2 control), trans-stimulation, PfCRTDd2” value (PfCRT^Dd2; [4]) was 98 ± 4.1 % PfCRTDd2 control. For the same compound, the “[3H]CQ transport (% PfCRTDd2 control), trans-stimulation, PfCRTDd2” value (PfCRT^Dd2; [5]) was 97 ± 3.5 % PfCRTDd2 control, the “PfCRT-mediated [3H]CQ transport, trans-stimulation (% PfCRTEcu1110 control)” value (PfCRT^Ecu1110; [2]) was 96 ± 1.4 % PfCRTEcu1110 control and the “PfCRT-mediated [3H]CQ transport, trans-stimulation (% PfCRTEcu1110 control)” value (PfCRT^Ecu1110; [3]) was 98 ± 4.6 % PfCRTEcu1110 control. The “[3H]CQ transport (% PfCRTDd2 control), trans-stimulation, PfCRTEcu1110” value (PfCRT^Ecu1110; [4]) was 32 ± 1.1 % PfCRTEcu1110 control and the “[3H]CQ transport (% PfCRTDd2 control), trans-stimulation, PfCRTEcu1110” value (PfCRT^Ecu1110; [5]) was 33 ± 1.3 % PfCRTEcu1110 control.
Compound `CC(C)(C)NC(=O)[C@@H]1C[C@@H]2CCCC[C@@H]2CN1C[C@@H](O)[C@H](Cc1ccccc1)NC(=O)[C@H](CC(N)=O)NC(=O)c1ccc2ccccc2n1` [Saquinavir, saquinavir, reference compound] has an IC50 (C2^GC03 parasites; 72 h, read-out: IC50 (μM), parasite proliferation, + 1 μM VP, SEM) of 5.1 ± 0.2 µM, an IC50 (C2^GC03 parasites; C2GC03, 72 h, 37 °C, SYBR Safe, mean ± SEM, n = 5, read-out: IC50 (μM), parasite proliferation, Control) of 6.8 ± 0.4 µM and an IC50 (3D7 strain; Plasmodium falciparum, 3D7, 72 h, 37 °C, SYBR Safe, mean ± SEM, n = 5, read-out: IC50 (μM), parasite proliferation, Control) of 7.4 ± 0.3 µM. It also gave an IC50 (3D7 strain; read-out: IC50 (μM), parasite proliferation, + 1 μM VP, SEM) of 5.9 ± 0.6 µM, an IC50 (7G8 strain; Plasmodium falciparum, 72 h, read-out: IC50 (μM), parasite proliferation, Control, SEM) of 4.7 ± 0.1 µM and an IC50 (7G8 strain; read-out: IC50 (μM), parasite proliferation, + 1 μM VP, 7G8, + 1 μM verapamil, 72 h, mean ± SEM, n = 5) of 2.2 ± 0.1 µM. For the same compound, the IC50 (C4^Dd2 parasites; Plasmodium falciparum, DD2, C4Dd2, 72 h, 37 °C, SYBR Safe, mean ± SEM, n = 5, read-out: IC50 (μM), parasite proliferation, Control) was 3.5 ± 0.5 µM, the IC50 (C4^Dd2 parasites; read-out: IC50 (μM), parasite proliferation, + 1 μM VP, C4Dd2, + 1 μM verapamil, 72 h, mean ± SEM, n = 5) was 1.9 ± 0.1 µM and the IC50 (C6^7G8 parasites; Plasmodium falciparum, C67G8, 72 h, 37 °C, SYBR Safe, mean ± SEM, n = 5, read-out: IC50 (μM), parasite proliferation, Control) was 4.2 ± 0.4 µM. It also gave an IC50 (C6^7G8 parasites; read-out: IC50 (μM), parasite proliferation, + 1 μM VP, C67G8, + 1 μM verapamil, 72 h, mean ± SEM, n = 5) of 2.3 ± 0.3 µM, an IC50 (Dd2 strain; Plasmodium falciparum, DD2, 72 h, read-out: IC50 (μM), parasite proliferation, Control, SEM) of 3.3 ± 0.2 µM and an IC50 (Dd2 strain; read-out: IC50 (μM), parasite proliferation, + 1 μM VP, Dd2, + 1 μM verapamil, 72 h, mean ± SEM, n = 5) of 2.1 ± 0.3 µM.
For PENF [PEF-4], the “Assignment as substrate or not a substrate based on accumulation ratios from peptidomic data” value [1] was “substrate”.
`CCN(CC)CCCC(C)Nc1ccnc2cc(Cl)ccc12` (stereo not shown) [CQ, chloroquine, reference compound] gave an IC50 (C2^GC03 parasites; 72 h, read-out: IC50 (nM), parasite proliferation, + 1 μM VP, SEM) of 0.026 ± 0.0013 µM, an IC50 (C2^GC03 parasites; C2GC03, 72 h, 37 °C, SYBR Safe, mean ± SEM, n = 5, read-out: IC50 (nM), parasite proliferation, Control) of 0.027 ± 0.0016 µM and an IC50 (3D7 strain; Plasmodium falciparum, 3D7, 72 h, 37 °C, SYBR Safe, mean ± SEM, n = 5, read-out: IC50 (nM), parasite proliferation, Control) of 0.025 ± 0.0011 µM. For the same compound, the IC50 (3D7 strain; Plasmodium falciparum, 3D7, 72 h, read-out: IC50 (nM), parasite proliferation, + 1 μM VP, SEM) was 0.024 ± 0.0009 µM, the IC50 (7G8 strain; [6]) was 0.028 ± 0.0016 µM and the IC50 (7G8 strain; Plasmodium falciparum, 72 h, read-out: IC50 (nM), parasite proliferation, Control, SEM) was 0.094 ± 0.0044 µM. The IC50 (C4^Dd2 parasites; [7]) was 0.026 ± 0.0001 µM, the IC50 (C6^7G8 parasites; [6]) was 0.025 ± 0.0002 µM and the IC50 (C6^7G8 parasites; Plasmodium falciparum, C67G8, 72 h, 37 °C, SYBR Safe, mean ± SEM, n = 5, read-out: IC50 (nM), parasite proliferation, Control) was 0.087 ± 0.0021 µM. For the same compound, the IC50 (Dd2 strain; [7]) was 0.025 ± 0.001 µM, the “[3H]CQ transport, PfNT1” value (PfNT1; 0 mM Ca2+, Experiment 1) was 3.03 % PfCRTDd2 control and the “[3H]CQ transport, PfNT1” value (PfNT1; 0 mM Ca2+, Experiment 2) was 3.55 % PfCRTDd2 control. For the same compound, the “[3H]CQ transport, PfNT1” value (PfNT1; 0 mM Ca2+, Experiment 3) was 3.65 % PfCRTDd2 control, the “[3H]CQ transport, PfNT1” value (PfNT1; 0 mM Ca2+, Experiment 4) was 3.28 % PfCRTDd2 control and the “[3H]CQ transport, PfNT1” value (PfNT1; 0 mM Cl-, Experiment 1) was 3.68 % PfCRTDd2 control. The “[3H]CQ transport, PfNT1” value (PfNT1; 0 mM Cl-, Experiment 2) was 3.72 % PfCRTDd2 control, the “[3H]CQ transport, PfNT1” value (PfNT1; 0 mM Cl-, Experiment 3) was 4.16 % PfCRTDd2 control and the “[3H]CQ transport, PfNT1” value (PfNT1; 0 mM Cl-, Experiment 4) was 3.75 % PfCRTDd2 control. For the same compound, the “[3H]CQ transport, PfNT1” value (PfNT1; 0 mM Na+, Experiment 1) was 3.67 % PfCRTDd2 control, the “[3H]CQ transport, PfNT1” value (PfNT1; 0 mM Na+, Experiment 2) was 3.32 % PfCRTDd2 control and the “[3H]CQ transport, PfNT1” value (PfNT1; 0 mM Na+, Experiment 3) was 3.62 % PfCRTDd2 control. For the same compound, the “[3H]CQ transport, PfNT1” value (PfNT1; 0 mM Na+, Experiment 4) was 3.15 % PfCRTDd2 control, the “[3H]CQ transport, PfNT1” value (PfNT1; 1 mM Ca2+, Experiment 1) was 4.25 % PfCRTDd2 control and the “[3H]CQ transport, PfNT1” value (PfNT1; 1 mM Ca2+, Experiment 2) was 3.56 % PfCRTDd2 control. The “[3H]CQ transport, PfNT1” value (PfNT1; 1 mM Ca2+, Experiment 3) was 3.56 % PfCRTDd2 control, the “[3H]CQ transport, PfNT1” value (PfNT1; 1 mM Ca2+, Experiment 4) was 4.24 % PfCRTDd2 control and the “[3H]CQ transport, PfNT1” value (PfNT1; 3 mM Ca2+, Experiment 1) was 3.29 % PfCRTDd2 control. The “[3H]CQ transport, PfNT1” value (PfNT1; 3 mM Ca2+, Experiment 2) was 3.28 % PfCRTDd2 control, the “[3H]CQ transport, PfNT1” value (PfNT1; 3 mM Ca2+, Experiment 3) was 3.36 % PfCRTDd2 control and the “[3H]CQ transport, PfNT1” value (PfNT1; 3 mM Ca2+, Experiment 4) was 3.62 % PfCRTDd2 control. For the same compound, the “[3H]CQ transport, PfNT1” value (PfNT1; 5 mM Ca2+, Experiment 1) was 3.95 % PfCRTDd2 control, the “[3H]CQ transport, PfNT1” value (PfNT1; 5 mM Ca2+, Experiment 2) was 3.75 % PfCRTDd2 control and the “[3H]CQ transport, PfNT1” value (PfNT1; 5 mM Ca2+, Experiment 3) was 3.96 % PfCRTDd2 control. For the same compound, the “[3H]CQ transport, PfNT1” value (PfNT1; 5 mM Ca2+, Experiment 4) was 3.37 % PfCRTDd2 control.
